Measurements published in patent publication US10154996B2, “Fungicidal agent” (priority 2014, dated 2018).
Where “and” joins values, the source holds several entries; their conditions need not be identical. Equal entries are not always repeated.

Assays:
[1] = Solubility in water; format: physicochemical; settings: for solubility in water: maximum concentration in water
Source text: (§1) However, this compound is very poorly soluble in aqueous media and in fats. The maximum value of solubility of the known drug in water is 0.002%, and for fats it is no more than 0.001% (octanol, which is a common model of lipids). […] Solutions with such concentration of the active substance are not sufficiently effective. At the same time the task of improvement of efficiency of use of a fungicidal agent in the form of solutions for use in human and veterinary medicine in the form of injections and inhalations and for treatment of a variety of materials and agricultural products is extremely urgent.

[2] = Solubility in fats / oil solutions; format: physicochemical
Source text: as §1

[3] = tested on: Aspergillus niger; test: Aspergillus pneumonia in mice, lung colonization after inhalation treatment; format: in vivo, white scrub mice
Method: The tests were conducted on white scrub mice (female, 6-8 weeks) received from “Rappolovo” breeding nursery (Leningrad reg.), which were kept under supervision for two weeks prior to the experiments on a standard diet in regulated vivarium conditions. Selection of the animals for the experiment group was conducted by the random selection method. For propagation of aspergillus pneumonia, the white scrub mice received a single intraperitoneal injection of a cyclophosphamide solution (150 mg/kg). After 3 days, the mice received a single intraperitoneal injection of a hydrocortisone solution (250 mg/kg). Twenty-four hours after administration of hydrocortisone the mice were intranasally infected with a suspension of Aspergillus niger (approximately 10^7 cells/ml) under ether narcosis. On day 5 after infection 5 animals from each group were taken to study lung colonization (euthanasia in the rodents was performed by overdose of ether). Lung tissues were used to prepare homogenates, in which the titer of Aspergillus fungi was determined. Observation over the remaining mice was carried out for 14 days after infection to record their mortality. The following groups of animals infected with Aspergillus niger were formed in the experiment. 1. Control groups: K1, K2, K3; the animals were exposed to an aerosol of isotonic sodium chloride solution. 2. Groups E1, E2, E3; the animals were administered a 0.1% aqueous solution of the presented preparation in the form of inhalations. 3. Groups P1, P2; the animals were administered an aqueous solution of the prototype fungicidal agent in the form of inhalations in concentrations of 0.002% and 0.001% respectively. The animals were placed into an aerosol chamber (12 liters) for 30 minutes, during which period 500 mL of air pass through their lungs. “OMRON U1” (Japan) ultrasonic nebulizer was used was used as an aerosol generator. To maintain a constant aerosol concentration in the chamber, a pneumatic vortex generator was used in the pulsed spraying mode ensuring a stable aerosol with particle size of 3 microns. The animals were placed in immobilization containers and exposed to the obtained aerosol for 30 minutes 1 time per day for 3 days starting from day 1 after the infection. Samples of homogenized lung tissue were used to prepare a number of successive dilutions followed by sowing on Saburo medium.

[4] = tested on: Pityrosporum orbiculare-Malassezia furfur; test: Treatment of scaly skin disease (Tinea versicolor, Pityriasis versicolor) in patients; format: in vivo; settings: cotton swab 2 times a day, 7 days
Method: Treatment of a Fungal Disease of the Skin—Scaly Skin Disease (Tinea Versicolor, Pityriasis versicolor). The disease is caused by a fungus called Pityrosporum orbiculare-Malassezia furfur (mycelial form). The following was prepared for the study: A 0.1% oil (olive oil) solution of the presented preparation and a 0.002% aqueous solution of the prototype substance. As a reference olive oil was used. The study included three groups of patients. Each group included 2 patients with this pathology. Treatment duration was 7 days. The drug was applied with a cotton swab 2 times a day—in the morning and in the evening.

[5] = tested on: Candida fungi; test: Treatment of vulvovaginal candidiasis in patients; format: in vivo; settings: douchings morning and evening, 7 days
Method: Treatment of Vulvovaginal Candidiasis. In the experiment, the patients, who suffered vulvovaginal candidiasis caused by Candida fungi, were treated using the following aqueous solutions: 1) 0.1% solution of the presented drug (3 persons), 2) 0.002% solution of the prototype drug (3 people). The treatment in the form of dualfold (in the morning and in the evening) douchings was performed for 7 days. The treatment efficacy was assessed by the clinical presentation and the results mycological examination (inoculations on Saburo medium).

[6] = tested on: Aspergillus niger and Penicillium notatum; test: Protection of construction wood against fungal attacks; settings: 5 days at 30° C.; for growth of test organisms on the boards: humid environment
Method: To test the preparation boards by the dimensions of 20×40×2 cm were used. The boards were divided into three groups. Group 1: the boards were impregnated with a 0.3% aqueous solution of the presented formulation. The impregnation was carried out by twofold application of the solution by means of a diffuser with an intermediate drying. Group 2: the boards were impregnated with a 0.02% aqueous solution of the prototype preparation. The impregnation was carried out by twofold application of the solution by means of a diffuser with an intermediate drying. Group 3 (control): the boards were impregnated with distilled water. The impregnation was carried out by twofold application of water by means of a diffuser with an intermediate drying. The boards dried after treatment were soaked in water for two hours, after which they were coated with Aspergillus niger and Penicillium notatum fungi cultures at opposite ends of one side. The boards were placed in thermostats for 5 days at the temperature of 30° C. in a humid environment. After incubation, the boards were visually inspected and inoculations were made from their surface onto a nutrient medium (Sabouraud).

[7] = tested on: Leveillula taurica; test: Treatment of powdery mildew on tuberous begonias; format: in vivo, Begonia tuberosa hybridum; settings: spray of 0.1% aqueous solution once a day for 7 days
Method: The study was conducted on tuberous begonias (Begonia tuberosa hybridum), infected with powdery mildew. Powdery mildew affects many plants, including trees and shrubs. Powdery mildew affects chrysanthemums, begonias, roses; at that a white, sometimes darkening, plaque appears green parts of the plant. The disease is transmitted by airborne spores. The tested plants were infected with spores of a fungus (Leveillula taurica) when exposed up to appearance of a white plaque on the leaves. Three leaves on each plant were infected. After appearance of the plaque the plants in control group (three plants) were isolated from the three plants treated with a spray of a 0.1% aqueous solution of the presented preparation. The treatment was performed once a day for 7 days. After the treatment was complete, observation over the plants was continued for another three weeks.

[8] = tested on: fungi of the Microsporum genus; test: Treatment of ringworm in cats; format: in vivo
Source text: The preparation was used in treatment of ringworm in cats (two animals) caused by fungi of the Microsporum genus and characterized by appearance of small round bald patches on the face and ears of the animal. The preparation in the form of a 0.1% aqueous solution was applied onto the affected area three times a day for 6 days.

[9] = lung homogenate day 5, 0.001% aqueous solution, inhalation, group P2
[10] = lung homogenate day 5, 0.002% aqueous solution, inhalation, group P1
[11] = boards impregnated with 0.02% aqueous solution
[12] = 0.1% aqueous solution on affected area three times a day for 6 days
[13] = boards impregnated with 0.3% aqueous solution

Compound: 2.4-dioxo-5-(2-hydroxy-3.5-dichlorobenzylidene)amino-1.3-pyrimidine [Prototype, reference compound]
- solubility in water [1]: 0.002%
- solubility in fats ([2]; octanol as common model of lipids): no more than 0.001%
- Number of colonies (in different dilutions) 10^−2 [3, 9]: 37
- Number of colonies (in different dilutions) 10^−4 [3, 9]: 2
- Number of colonies (in different dilutions) 10^−2 [3, 10]: 26
- Number of colonies (in different dilutions) 10^−4 [3, 10]: 1
- Complete cure ([4]; 0.002% aqueous solution): Absent
- Complete cure ([5]; 0.002% aqueous solution): Not reached
- Mycological cure (reduction in the number of fungi inoculated on a solid medium) ([5]; 0.002% aqueous solution): 1.7-fold reduction in the number of
- growth from inoculations on nutrient medium (Sabouraud) [6, 11]: later spread in the nutrient medium
- growth of test organisms on the boards [6, 11]: a growth of the inoculated test bacteria can be detected

Compound: N#CSc1cc(C=Nc2c[nH]c(=O)nc2O)c(O)c(SC#N)c1 [presented preparation]
- solubility in water [1]: 0.3-0.4%
- increase in solubility versus prototype ([1]; water and oil solutions): more than a hundred-fold
- solubility for oil solutions ([2]; oil solutions): 0.25-0.3%
- Number of colonies (in different dilutions) 10^−2 ([3]; lung homogenate day 5, Saburo medium, 0.1% aqueous solution, inhalation 30 min once daily for 3 days, groups E1-E3): 2 and 4
- Complete cure ([4]; 0.1% oil (olive oil) solution): Reached
- Complete cure ([5]; 0.1% aqueous solution): Reached
- Mycological cure (reduction in the number of fungi inoculated on a solid medium) ([5]; 0.1% aqueous solution): A tenfold reduction in the number
- growth of fungi after flushing off the leaf and inoculation on a nutrient medium [7]: no growth of the fungi was observed
- increase or spread of the fungus on the plant ([7]; observation three more weeks): no increase or spread of the fungus to other parts of the plant occur
- inflammatory manifestations [8, 12]: disappearance of inflammatory manifestations was reported
- size of affected areas [8, 12]: the affected areas ceased to increase
- growth from inoculations of swabs from the affected area after treatment ([8]; 0.1% aqueous solution three times a day for 6 days, nutrient media): did not lead to growth on nutrient media
- growth from control inoculations on nutrient medium (Sabouraud) [6, 13]: did not lead to a growth on the nutrient medium
- growth of test organisms on the boards [6, 13]: No growth of the test organisms was registered
